From PubChem BioAssay (NCI) come the findings set out here.

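Cultured in 96-well plates, cells were exposed to test compound for 48 hours across five concentrations. Definition used: TGI = concentration required for complete inhibition of growth.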

Common to all, as to experiment: NCI anticancer screen, dose series, 48 h
Assay [1] has as its system A498 renal.
The test system of assay [2] is SW-620 colon.
The test system of assay [3] is SK-MEL-2 melanoma.
The test system of assay [4] is OVCAR-4 ovarian.
The subject of assay [5] is HCC-2998 colon.
In assay [6] the test system is MDA-MB-435.
Assay [7] concerns NCI-H460 lung.
Assay [8] relates to SK-OV-3 ovarian.
Assay [9] deals with HCT-116 colon.
Assay [10] deals with TK-10 renal.
The test system of assay [11] is SNB-75 CNS.
Assay [12] relates to HL-60(TB) leukemia.
The test system of assay [13] is MDA-MB-231 breast.
For assay [14], the system named is MALME-3M melanoma.
Assay [15] deals with HOP-62 NSCLC.
Assay [16] deals with M14 melanoma.
In assay [17] the test system is CCRF-CEM leukemia.
Assay [18] has as its system SN12C renal.
Assay [19] has as its system DU-145 prostate.

`CCCCCCCCCCCCCCCCCc1cccc(OCOCCOC)c1CO`: the TGI in assay [1], in [2], in assay [3], in assay [4], in assay [5] and in assay [6] was over 100 µM in each case. Further, the TGI in assay [7], in assay [8], in [9], in assay [10], in assay [11] and in assay [12] was over 100 µM each time. Also, the TGI in assay [13], in assay [14], in [15], in assay [16] and in [17] was over 100 µM in each case.
On to `COc1cc(C2c3cc4c(cc3[C@@H](Nc3ccccc3)C3CO[C@@H](OC)[C@H]23)OCO4)cc(OC)c1O` (stereo not given in full), for which the TGI in [2], in assay [4], in assay [5], in assay [6], in assay [7] and in assay [8] was over 25 µM each time. The TGI in assay [9] is over 25 µM; in assay [10], over 25 µM; in assay [11], over 25 µM; in assay [12] it was 8.24 µM; in assay [18] it was over 25 µM; in assay [15] it was over 25 µM. For the same molecule, the TGI was over 25 µM in [16] and 11.3 µM in assay [17].
With `O=C(CSc1nnc(Cc2ccccc2)o1)Nc1cccc([N+](=O)[O-])c1`, the TGI in assay [3], in assay [4], in assay [5], in assay [7], in [8] and in assay [9] was over 100 µM throughout. In addition, the TGI in assay [10], in [11], in assay [12], in assay [18], in [14] and in assay [15] was over 100 µM each time. The TGI in [16] and in [17] was over 100 µM in each case.
Take `COc1cc2c(c(OC)c1OC)-c1ccc(SC)c(=O)cc1C(CC(=O)Oc1ccc([N+](=O)[O-])cc1)C2` (stereo not given): the TGI in [1] was 0.571 µM; in [2] it was over 48.7 µM; in assay [3] it was over 48.8 µM; in assay [4], over 43.6 µM; in assay [5] it was 2.13 µM; in assay [7] it was 5.78 µM. Also, the TGI in assay [8] is over 100 µM; in assay [9], 1.82 µM; in assay [10], over 51.3 µM; in assay [11], 0.68 µM; in assay [12], over 38.2 µM; in assay [18] it was over 43.1 µM. Also, the TGI in assay [14] was over 65.2 µM; in assay [15] it was over 100 µM; in [16], 1.53 µM; in [17], over 100 µM.
With `CCOC(=O)[C@H]1Nc2ccc(C)cc2C2c3ccccc3CC21` (stereo not given in full), the TGI in assay [1], in assay [2], in assay [3], in [4], in assay [5] and in assay [7] was over 100 µM each time. Further, the TGI in [9], in [10], in assay [11], in [18], in assay [14] and in assay [15] was over 100 µM in each case. The same molecule had a TGI in assay [16] of over 100 µM.
As to `COc1cccc(C2c3cc4c(cc3OC(N3CCCC3)C2C)OCO4)c1` (stereo not given), the TGI in assay [19] is 58.6 µM; in assay [2], over 100 µM; in assay [3] it was 23.6 µM; in assay [5], 24.9 µM; in assay [6] it was 11.6 µM; in [9] it was 18.3 µM. Moreover, the TGI in assay [10] is over 100 µM; in assay [11], 81 µM; in assay [18] it was over 100 µM; in [15], 19.8 µM; in [16], 21.1 µM; in assay [17], 17.1 µM.
For `CCOC(=O)c1c(SC(=O)/C=C/c2ccccc2)n(-c2ccccc2)c(=S)n(-c2ccccc2)c1=O`, the TGI in assay [1], in assay [19], in assay [2], in [4], in assay [5] and in [6] was over 100 µM each time. The TGI in [7], in [8], in assay [9], in assay [10], in assay [11] and in assay [18] was over 100 µM throughout. Moreover, the TGI in [13], in [14], in [15], in [16] and in [17] was over 100 µM throughout.
`N#[O+].O=S(=O)([O-])[O-].[NH2-].[NH2-].[NH2-].[NH2-].[NH2-].[Ru+5]`: the TGI in assay [1], in assay [2], in assay [3], in assay [5], in assay [7] and in assay [8] was over 100 µM throughout. For the same molecule, the TGI is over 100 µM in [9]; over 100 µM in [10]; over 100 µM in assay [11]; over 100 µM in assay [12]; over 100 µM in assay [18]; 27.7 µM in [14]. For the same molecule, the TGI in [17] was over 100 µM.
For `C=CCN1C(=O)/C(=C/c2ccccc2)NC1=S`, the TGI in assay [1], in [19], in [2], in [3], in assay [4] and in [5] was over 100 µM each time. Besides, the TGI in [6], in assay [7], in assay [8], in [9], in assay [10] and in [11] was over 100 µM throughout. In addition, the TGI in assay [12], in [18], in assay [13], in [14], in assay [15] and in [16] was over 100 µM throughout. The TGI in assay [17] is over 100 µM.
